According to patent US7595401B2, “Therapeutic compounds and their use in cancer” (Myriad Pharmaceuticals, Inc., priority 2006, dated 2009):

Tested on: purified human Hsp90
Test: Binding Assay: fluorescence polarization with BODIPY-labeled geldanamycin
Details: BODIPY-GM 10 nM, Hsp90 30 nM
Description: Compound binding to purified Hsp90 was monitored using BODIPY-labeled geldanamycin (BODIPY-GM) in a fluorescence polarization assay adapted from Kim et al. (Journal of Biomolecular Screening 2004, 9(5):375-381). Compound dilutions (in 100% DMSO) were added to black-bottom 96-well plates (Greiner; 2% DMSO final), and equal volumes of BODIPY-GM (10 nM final) and purified human Hsp90 (Stressgen, SPP-770; 30 nM final) in assay buffer (20 mM HEPES-KOH pH 7.3, 50 mM KCl, 5 mM MgCl2, 20 mM Na2MoO4, 0.01% NP-40, 0.1 mg/mL bovine gamma globulin [Invitrogen, P2045], 2 mM DTT) were added sequentially to yield a final volume of 50 microliters. Plates were incubated overnight at room temperature. Parallel and perpendicular fluorescence measurements were read (LJL BioSystems Analyst AD plate reader) with excitation/emission wavelengths of 485/530 nm. Background fluorescence (buffer only) was subtracted, and fluorescence polarization (FP) values, expressed in mP units, were calculated from parallel and perpendicular fluorescence readings as follows: FP=(parallel−perpendicular)/(parallel+perpendicular)*1000
Percent inhibition was calculated by normalizing the FP values to those obtained in parallel reactions containing DMSO and subtracting these normalized values from 100%. Intrinsic compound fluorescence was independently monitored, and FP data points confounded by compound fluorescence were excluded from the analysis.

% Inhibition at 5 μM Compound Concentration [%]	IC50 [µM]	SMILES
66	1.06	Nc1ncnc2c1nc(Sc1ccc3c(c1)OCO3)n2CCCc1ccccc1 [Example 6, 8-(Benzo[1,3]dioxol-5-ylsulfanyl)-9-(3-phenyl-propyl)-9H-purin-6-ylamine]
22	–	Nc1ncnc2c1nc(Sc1ccc3c(c1)OCO3)n2CCc1ccc([N+](=O)[O-])cc1 [Example 7, 8-(Benzo[1,3]dioxol-5-ylsulfanyl)-9-[2-(4-nitro-phenyl)-ethyl]-9H-purin-6-ylamine]
–	18	COc1ccc(OC)c(Sc2nc3c(N)ncnc3n2CCc2ccc([N+](=O)[O-])cc2)c1 [Example 8, 8-(2,5-Dimethoxy-phenylsulfanyl)-9-[2-(4-nitro-phenyl)-ethyl]-9H-purin-6-ylamine]
–	1	COc1ccc(OC)c(Sc2nc3c(N)ncnc3n2CCc2ccc(F)cc2)c1 [Example 9, 8-(2,5-Dimethoxy-phenylsulfanyl)-9-[2-(4-fluoro-phenyl)-ethyl]-9H-purin-6-ylamine]
–	> 50	COc1ccc(OC)c(Sc2nc3c(N)ncn(CCc4ccc(F)cc4)c-3n2)c1 [Example 10, 8-(2,5-dimethoxy-phenylsulfanyl)-3-[2-(4-fluoro-phenyl)-ethyl]-3H-purin-6-ylamine]
–	0.6	Nc1ncnc2c1nc(Sc1ccc3c(c1)OCO3)n2CCc1ccc(F)cc1 [Example 11, 8-(Benzo[1,3]dioxol-5-ylsulfanyl)-9-[2-(4-fluoro-phenyl)-ethyl]-9H-purin-6-ylamine]
–	> 10	Nc1ncn(CCc2ccc(F)cc2)c2nc(Sc3ccc4c(c3)OCO4)nc1-2 [Example 12, 8-(benzo[1,3]dioxol-5-ylsulfanyl)-3-[2-(4-fluoro-phenyl)-ethyl]-3H-purin-6-ylamine]
–	0.045	Nc1ncnc2c1nc(Sc1cc3c(cc1Br)OCO3)n2CCc1ccccc1 [Example 13, 8-(6-Bromo-benzo[1,3]dioxol-5-ylsulfanyl)-9-phenethyl-9H-purin-6-ylamine]
–	5	Nc1ncn(CCc2ccccc2)c2nc(Sc3cc4c(cc3Br)OCO4)nc1-2 [Example 14, 8-(6-bromo-benzo[1,3]dioxol-5-ylsulfanyl)-3-phenethyl-3H-purin-6-ylamine]
–	6.5	COc1ccc(Sc2nc3c(N)ncnc3n2CCc2ccccc2)c(OC)c1 [Example 15, 8-(2,4-Dimethoxy-phenylsulfanyl)-9-phenethyl-9H-purin-6-ylamine]
6	–	COc1ccc(Sc2nc3c(N)ncn(CCc4ccccc4)c-3n2)c(OC)c1 [Example 16, 8-(2,4-dimethoxy-phenylsulfanyl)-3-phenethyl-3H-purin-6-ylamine]
–	> 10	Nc1ncnc2c1nc(S(=O)(=O)c1ccc(Cl)cc1)n2CCc1ccccc1 [Example 17, 8-(4-Chloro-phenylsulfonyl)-9-phenethyl-9H-purin-6-ylamine]
0	–	Nc1ncn(CCc2ccccc2)c2nc(Sc3ccc(Cl)cc3)nc1-2 [Example 18, 8-(4-chloro-phenylsulfanyl)-3-phenethyl-3H-purin-6-ylamine]
–	> 10	N#Cc1ccc(Sc2nc3c(N)ncnc3n2CCc2ccccc2)cc1 [Example 19, 4-(6-Amino-9-phenethyl-9H-purin-8-ylsulfanyl)-benzonitrile]
0	> 10	N#Cc1ccc(Sc2nc3c(N)ncn(CCc4ccccc4)c-3n2)cc1 [Example 20, 4-(6-amino-3-phenethyl-3H-purin-8-ylsulfanyl)-benzonitrile]
–	> 10	COc1ccc(OC)c(Sc2nc3c(N)ncnc3n2CCc2ccc(OC)c(OC)c2)c1 [Example 21, 9-[2-(3,4-Dimethoxy-phenyl)-ethyl]-8-(2,5-dimethoxy-phenylsulfanyl)-9H-purin-6-ylamine]
–	> 10	COc1ccc(OC)c(Sc2nc3c(N)ncn(CCc4ccc(OC)c(OC)c4)c-3n2)c1 [Example 22, 3-[2-(3,4-dimethoxy-phenyl)-ethyl]-8-(2,5-dimethoxy-phenylsulfanyl)-3H-purin-6-ylamine]
–	> 10	COc1ccc(OC)c(Sc2nc3c(N)ncnc3n2CCc2ccc(C)cc2)c1 [Example 23, 8-(2,5-Dimethoxy-phenylsulfanyl)-9-(2-p-tolyl-ethyl)-9H-purin-6-ylamine]
–	> 10	COc1ccc(OC)c(Sc2nc3c(N)ncn(CCc4ccc(C)cc4)c-3n2)c1 [Example 24, 8-(2,5-dimethoxy-phenylsulfanyl)-3-(2-p-tolyl-ethyl)-3H-purin-6-ylamine]

% Inhibition at 5 μM Compound Concentration [%]	IC50 [µM]	SMILES
–	0.041	COc1ccc(OC)c(Sc2nc3c(N)ncnc3n2CCc2ccccc2Cl)c1 [Example 25, 9-[2-(2-Chloro-phenyl)-ethyl]-8-(2,5-dimethoxy-phenylsulfanyl)-9H-purin-6-ylamine]
–	> 10	COc1ccc(OC)c(Sc2nc3c(N)ncn(CCc4ccccc4Cl)c-3n2)c1 [Example 26, 3-[2-(2-chloro-phenyl)-ethyl]-8-(2,5-dimethoxy-phenylsulfanyl)-3H-purin-6-ylamine]
–	> 10	COc1ccc(OC)c(Sc2nc3c(N)ncnc3n2CCc2ccc(Cl)cc2Cl)c1 [Example 27, 9-[2-(2,4-Dichloro-phenyl)-ethyl]-8-(2,5-dimethoxy-phenylsulfanyl)-9H-purin-6-ylamine]
0	–	COc1ccc(OC)c(Sc2nc3c(N)ncn(CCc4ccc(Cl)cc4Cl)c-3n2)c1 [Example 28, 3-[2-(2,4-dichloro-phenyl)-ethyl]-8-(2,5-dimethoxy-phenyl-sulfanyl)-3H-purin-6-ylamine]
–	0.15	COc1ccc(OC)c(Sc2nc3c(N)ncnc3n2CCc2ccccc2F)c1 [Example 29, 8-(2,5-Dimethoxy-phenylsulfanyl)-9-[2-(2-fluoro-phenyl)-ethyl]-9H-purin-6-ylamine]
16	> 10	COc1ccc(OC)c(Sc2nc3c(N)ncn(CCc4ccccc4F)c-3n2)c1 [Example 30, 8-(2,5-dimethoxy-phenylsulfanyl)-3-[2-(2-fluoro-phenyl)-ethyl]-3H-purin-6-ylamine]
–	> 10	COc1cc(Sc2nc3c(N)ncnc3n2CCc2ccc(Cl)cc2)cc(OC)c1OC [Example 31, 9-[2-(4-Chloro-phenyl)-ethyl]-8-(3,4,5-trimethoxy-phenylsulfanyl)-9H-purin-6-ylamine]
–	> 10	COc1cc(Sc2nc3c(N)ncn(CCc4ccc(Cl)cc4)c-3n2)cc(OC)c1OC [Example 32, 3-[2-(4-chloro-phenyl)-ethyl]-8-(3,4,5-trimethoxy-phenylsulfanyl)-3H-purin-6-ylamine]
–	0.017	Nc1ncnc2c1nc(Sc1cc3c(cc1I)OCO3)n2CCc1ccccc1 [Example 33, 8-(-6-Iodo-benzo[1,3]dioxol-5-ylsulfanyl)-9-phenethyl-9H-purin-6-ylamine]
–	> 10	Nc1ncn(CCc2ccccc2)c2nc(Sc3cc4c(cc3I)OCO4)nc1-2 [Example 34, 8-(6-iodo-benzo[1,3]dioxol-5-ylsulfanyl)-3-phenethyl-3H-purin-6-ylamine]
–	0.8	COc1cccc(CCn2c(Sc3cc(OC)ccc3OC)nc3c(N)ncnc32)c1 [Example 35, 8-(2,5-Dimethoxy-phenylsulfanyl)-9-[2-(3-methoxy-phenyl)-ethyl]-9H-purin-6-ylamine]
–	> 5	COc1cccc(CCn2cnc(N)c3nc(Sc4cc(OC)ccc4OC)nc2-3)c1 [Example 36, 8-(2,5-dimethoxy-phenylsulfanyl)-3-[2-(3-methoxy-phenyl)-ethyl]-3H-purin-6-ylamine]
–	0.8	COc1ccc(OC)c(Sc2nc3c(N)ncnc3n2CCc2cccc(F)c2)c1 [Example 37, 8-(2,5-Dimethoxy-phenylsulfanyl)-9-[2-(3-fluoro-phenyl)-ethyl]-9H-purin-6-ylamine]
–	> 10	COc1ccc(OC)c(Sc2nc3c(N)ncn(CCc4cccc(F)c4)c-3n2)c1 [Example 38, 8-(2,5-dimethoxy-phenylsulfanyl)-3-[2-(3-fluoro-phenyl)-ethyl]-3H-purin-6-ylamine]
–	0.23	Nc1ncnc2c1nc(Sc1cc3c(cc1Br)OCO3)n2CCc1ccc(Cl)cc1F [Example 39, 8-(6-Bromo-benzo[1,3]dioxol-5-ylsulfanyl)-9-[2-(4-chloro-2-fluorophenyl)-ethyl]-9H-purin-6-ylamine]
–	> 10	Nc1ncn(CCc2ccc(Cl)cc2F)c2nc(Sc3cc4c(cc3Br)OCO4)nc1-2 [Example 40, 8-(6-bromo-benzo[1,3]dioxol-5-ylsulfanyl)-3-[2-(4-chloro-2-fluoro-phenyl)-ethyl]-3H-purin-6-ylamine]
–	0.5	Nc1ncnc2c1nc(Sc1cc3c(cc1Br)OCO3)n2CCc1c(F)c(F)c(F)c(F)c1F [Example 41, 8-(6-Bromo-benzo[1,3]dioxol-5-ylsulfanyl)-9-(2-pentafluorophenyl-ethyl)-9H-purin-6-ylamine]
–	> 5	Nc1ncn(CCc2c(F)c(F)c(F)c(F)c2F)c2nc(Sc3cc4c(cc3Br)OCO4)nc1-2 [Example 42, 8-(6-bromo-benzo[1,3]dioxol-5-ylsulfanyl)-3-(2-pentafluorophenyl-ethyl)-3H-purin-6-ylamine]
–	0.7	Nc1ncnc2c1nc(Sc1cc3c(cc1Br)OCO3)n2CCCc1ccccc1 [Example 43, 8-(6-Bromo-benzo[1,3]dioxol-5-ylsulfanyl)-9-(3-phenyl-propyl)-9H-purin-6-ylamine]
